From PubChem BioAssay AID2060503 (Molecular Pharmacology Branch, DTP, NCI, 2025)

These compounds were tested on 817829-284-R-J1-PDC complex spheroids, viability (assay: Anticancer human tumor 817829-284-R-J1-PDC patient-derived colon adenocarcinoma cell line growth inhibition [GQUAD]). Conditions: second compound 0.1 µM; first compound 1 µM; active compounds read low.
Procedure, shortened: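 Multi-cell-type spheroids of tumor cells with HUVEC and mesenchymal stem cells, treated with drug combinations. Concentrations descend in half-log steps from near clinical Cmax, or from 10 microM where Cmax is unknown; viability read-out.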
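Further: spheroids exposed to agents for 7 days before readout; percent viability relative to DMSO vehicle control taken as 100%.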

First: O=C(c1cc(Cc2n[nH]c(=O)c3ccccc23)ccc1F)N1CCN(C(=O)C2CC2)CC1 + Cc1cnc(CNC(=O)c2c(=O)c3ccc(N4CCCN(C)CC4)nc3n3c2sc2ccccc23)cn1
Second: O=c1[nH]cc(F)c(=O)[nH]1 + Cc1cnc(CNC(=O)c2c(=O)c3ccc(N4CCCN(C)CC4)nc3n3c2sc2ccccc23)cn1
The viability, T/C of the first is lower: 32.1% for the first, 35.5% for the second.

Same assay, conditions: second compound 0.1 µM; first compound 3.16 µM; active compounds read low

Compared with `COc1ncnc(C2CC2)c1-c1ncc2cnn(Cc3ccc(-c4nc(C(F)(F)F)cn4C(C)C)cc3)c2n1` + Cc1[nH]c2ccc(F)cc2c1-c1nc2c3cccnc3c3ncccc3c2[nH]1, `CC(C)n1c(=O)n(C)c2cnc3cc(F)c(-c4ccc(OCCCN5CCCCC5)nc4)cc3c21` + Cc1cnc(CNC(=O)c2c(=O)c3ccc(N4CCCN(C)CC4)nc3n3c2sc2ccccc23)cn1 is lower in viability, T/C: 108% for the first, 22.9% for the second.

Compared with `C=CC(=O)N1CCN(c2nc(=O)n(-c3c(C)ccnc3C(C)C)c3nc(-c4c(O)cccc4F)c(F)cc23)C(C)C1` (configuration not stated) + Cc1cnc(CNC(=O)c2c(=O)c3ccc(N4CCCN(C)CC4)nc3n3c2sc2ccccc23)cn1, `O=C(c1cc(Cc2n[nH]c(=O)c3ccccc23)ccc1F)N1CCN(C(=O)C2CC2)CC1` + Cc1cnc(CNC(=O)c2c(=O)c3ccc(N4CCCN(C)CC4)nc3n3c2sc2ccccc23)cn1 is higher in viability, T/C: 29.9% for the first, 33.8% for the second.

Compared with `COc1ccc([C@@H](O)c2cc(-c3ncnc4cc(N5CCOCC5)ccc34)c(F)cc2Cl)nn1` + Cc1cnc(CNC(=O)c2c(=O)c3ccc(N4CCCN(C)CC4)nc3n3c2sc2ccccc23)cn1, `Nc1ccn(C2OC(CO)C(O)C2(F)F)c(=O)n1` (configuration not stated) + Cc1cnc(CNC(=O)c2c(=O)c3ccc(N4CCCN(C)CC4)nc3n3c2sc2ccccc23)cn1 is lower in viability, T/C: 24.2% for the first, 6.51% for the second.

Compound `O=c1[nH]cc(F)c(=O)[nH]1` + Cc1cnc(CNC(=O)c2c(=O)c3ccc(N4CCCN(C)CC4)nc3n3c2sc2ccccc23)cn1 has a viability, T/C of 29.1%.

Same assay, conditions: second compound 0.1 µM; first compound 10 µM; active compounds read low

First: COc1ncnc(C2CC2)c1-c1ncc2cnn(Cc3ccc(-c4nc(C(F)(F)F)cn4C(C)C)cc3)c2n1 + Cc1[nH]c2ccc(F)cc2c1-c1nc2c3cccnc3c3ncccc3c2[nH]1
Second: CC(C)n1c(=O)n(C)c2cnc3cc(F)c(-c4ccc(OCCCN5CCCCC5)nc4)cc3c21 + Cc1cnc(CNC(=O)c2c(=O)c3ccc(N4CCCN(C)CC4)nc3n3c2sc2ccccc23)cn1
The viability, T/C of the first is higher: 115% for the first, 14.6% for the second.

First: C=CC(=O)N1CCN(c2nc(=O)n(-c3c(C)ccnc3C(C)C)c3nc(-c4c(O)cccc4F)c(F)cc23)C(C)C1 (configuration not stated) + Cc1cnc(CNC(=O)c2c(=O)c3ccc(N4CCCN(C)CC4)nc3n3c2sc2ccccc23)cn1
Second: O=C(c1cc(Cc2n[nH]c(=O)c3ccccc23)ccc1F)N1CCN(C(=O)C2CC2)CC1 + Cc1cnc(CNC(=O)c2c(=O)c3ccc(N4CCCN(C)CC4)nc3n3c2sc2ccccc23)cn1
The viability, T/C of the first is lower: 26.8% for the first, 29.9% for the second.

Compared with `COc1ccc([C@@H](O)c2cc(-c3ncnc4cc(N5CCOCC5)ccc34)c(F)cc2Cl)nn1` + Cc1cnc(CNC(=O)c2c(=O)c3ccc(N4CCCN(C)CC4)nc3n3c2sc2ccccc23)cn1, `Nc1ccn(C2OC(CO)C(O)C2(F)F)c(=O)n1` (configuration not stated) + Cc1cnc(CNC(=O)c2c(=O)c3ccc(N4CCCN(C)CC4)nc3n3c2sc2ccccc23)cn1 is lower in viability, T/C: 19.3% for the first, 4.03% for the second.

Compound `O=c1[nH]cc(F)c(=O)[nH]1` + Cc1cnc(CNC(=O)c2c(=O)c3ccc(N4CCCN(C)CC4)nc3n3c2sc2ccccc23)cn1 has a viability, T/C of 25.7%.

Same assay, conditions: second compound 0.316 µM; first compound 0.0316 µM; active compounds read low

Going from `COc1ncnc(C2CC2)c1-c1ncc2cnn(Cc3ccc(-c4nc(C(F)(F)F)cn4C(C)C)cc3)c2n1` + Cc1[nH]c2ccc(F)cc2c1-c1nc2c3cccnc3c3ncccc3c2[nH]1 to `CC(C)n1c(=O)n(C)c2cnc3cc(F)c(-c4ccc(OCCCN5CCCCC5)nc4)cc3c21` + Cc1cnc(CNC(=O)c2c(=O)c3ccc(N4CCCN(C)CC4)nc3n3c2sc2ccccc23)cn1, the viability, T/C falls from 105% to 23.7%.

Compared with `C=CC(=O)N1CCN(c2nc(=O)n(-c3c(C)ccnc3C(C)C)c3nc(-c4c(O)cccc4F)c(F)cc23)C(C)C1` (configuration not stated) + Cc1cnc(CNC(=O)c2c(=O)c3ccc(N4CCCN(C)CC4)nc3n3c2sc2ccccc23)cn1, `O=C(c1cc(Cc2n[nH]c(=O)c3ccccc23)ccc1F)N1CCN(C(=O)C2CC2)CC1` + Cc1cnc(CNC(=O)c2c(=O)c3ccc(N4CCCN(C)CC4)nc3n3c2sc2ccccc23)cn1 is lower in viability, T/C: 26.6% for the first, 24.3% for the second.

Going from `COc1ccc([C@@H](O)c2cc(-c3ncnc4cc(N5CCOCC5)ccc34)c(F)cc2Cl)nn1` + Cc1cnc(CNC(=O)c2c(=O)c3ccc(N4CCCN(C)CC4)nc3n3c2sc2ccccc23)cn1 to `Nc1ccn(C2OC(CO)C(O)C2(F)F)c(=O)n1` (configuration not stated) + Cc1cnc(CNC(=O)c2c(=O)c3ccc(N4CCCN(C)CC4)nc3n3c2sc2ccccc23)cn1, the viability, T/C falls from 27.7% to 15.3%.

With `O=c1[nH]cc(F)c(=O)[nH]1` + Cc1cnc(CNC(=O)c2c(=O)c3ccc(N4CCCN(C)CC4)nc3n3c2sc2ccccc23)cn1 the viability, T/C was 25.3%.

Same assay, conditions: second compound 0.316 µM; first compound 0.1 µM; active compounds read low

Going from `COc1ncnc(C2CC2)c1-c1ncc2cnn(Cc3ccc(-c4nc(C(F)(F)F)cn4C(C)C)cc3)c2n1` + Cc1[nH]c2ccc(F)cc2c1-c1nc2c3cccnc3c3ncccc3c2[nH]1 to `CC(C)n1c(=O)n(C)c2cnc3cc(F)c(-c4ccc(OCCCN5CCCCC5)nc4)cc3c21` + Cc1cnc(CNC(=O)c2c(=O)c3ccc(N4CCCN(C)CC4)nc3n3c2sc2ccccc23)cn1, the viability, T/C falls from 119% to 28.1%.

First: C=CC(=O)N1CCN(c2nc(=O)n(-c3c(C)ccnc3C(C)C)c3nc(-c4c(O)cccc4F)c(F)cc23)C(C)C1 (configuration not stated) + Cc1cnc(CNC(=O)c2c(=O)c3ccc(N4CCCN(C)CC4)nc3n3c2sc2ccccc23)cn1
Second: O=C(c1cc(Cc2n[nH]c(=O)c3ccccc23)ccc1F)N1CCN(C(=O)C2CC2)CC1 + Cc1cnc(CNC(=O)c2c(=O)c3ccc(N4CCCN(C)CC4)nc3n3c2sc2ccccc23)cn1
The viability, T/C of the first is higher: 28.8% for the first, 24.5% for the second.

First: COc1ccc([C@@H](O)c2cc(-c3ncnc4cc(N5CCOCC5)ccc34)c(F)cc2Cl)nn1 + Cc1cnc(CNC(=O)c2c(=O)c3ccc(N4CCCN(C)CC4)nc3n3c2sc2ccccc23)cn1
Second: Nc1ccn(C2OC(CO)C(O)C2(F)F)c(=O)n1 (configuration not stated) + Cc1cnc(CNC(=O)c2c(=O)c3ccc(N4CCCN(C)CC4)nc3n3c2sc2ccccc23)cn1
The viability, T/C of the first is higher: 29.7% for the first, 11.4% for the second.

`O=c1[nH]cc(F)c(=O)[nH]1` + Cc1cnc(CNC(=O)c2c(=O)c3ccc(N4CCCN(C)CC4)nc3n3c2sc2ccccc23)cn1 showed a viability, T/C of 27.6%.

Same assay, conditions: second compound 0.316 µM; first compound 0.316 µM; active compounds read low

Compared with `COc1ncnc(C2CC2)c1-c1ncc2cnn(Cc3ccc(-c4nc(C(F)(F)F)cn4C(C)C)cc3)c2n1` + Cc1[nH]c2ccc(F)cc2c1-c1nc2c3cccnc3c3ncccc3c2[nH]1, `CC(C)n1c(=O)n(C)c2cnc3cc(F)c(-c4ccc(OCCCN5CCCCC5)nc4)cc3c21` + Cc1cnc(CNC(=O)c2c(=O)c3ccc(N4CCCN(C)CC4)nc3n3c2sc2ccccc23)cn1 is lower in viability, T/C: 101% for the first, 23.1% for the second.

First: C=CC(=O)N1CCN(c2nc(=O)n(-c3c(C)ccnc3C(C)C)c3nc(-c4c(O)cccc4F)c(F)cc23)C(C)C1 (configuration not stated) + Cc1cnc(CNC(=O)c2c(=O)c3ccc(N4CCCN(C)CC4)nc3n3c2sc2ccccc23)cn1
Second: O=C(c1cc(Cc2n[nH]c(=O)c3ccccc23)ccc1F)N1CCN(C(=O)C2CC2)CC1 + Cc1cnc(CNC(=O)c2c(=O)c3ccc(N4CCCN(C)CC4)nc3n3c2sc2ccccc23)cn1
The viability, T/C of the first is higher: 28.4% for the first, 25.1% for the second.

First: COc1ccc([C@@H](O)c2cc(-c3ncnc4cc(N5CCOCC5)ccc34)c(F)cc2Cl)nn1 + Cc1cnc(CNC(=O)c2c(=O)c3ccc(N4CCCN(C)CC4)nc3n3c2sc2ccccc23)cn1
Second: Nc1ccn(C2OC(CO)C(O)C2(F)F)c(=O)n1 (configuration not stated) + Cc1cnc(CNC(=O)c2c(=O)c3ccc(N4CCCN(C)CC4)nc3n3c2sc2ccccc23)cn1
The viability, T/C of the first is higher: 24% for the first, 8.25% for the second.

Compound `O=c1[nH]cc(F)c(=O)[nH]1` + Cc1cnc(CNC(=O)c2c(=O)c3ccc(N4CCCN(C)CC4)nc3n3c2sc2ccccc23)cn1 has a viability, T/C of 32.9%.
